How the values were obtained:
[1] = Displacement of [3H]-8-OH-DPAT from bovine hippocampal tissue 5HT1A receptor by competitive binding assay; assay type: tissue-based, Bos taurus, Hippocampus
Macaca mulatta [2] = species: Macaca mulatta; experiment: Binding affinity to rhesus monkey dorsal anterior cingulate cortex 5-HT1A; assay type: tissue-based; settings: filed as antagonist, tested as the 18F-labelled form
Macaca mulatta [3] = species: Macaca mulatta; experiment: Binding affinity to rhesus monkey mesial temporal cingulate cortex 5-HT1A; assay type: tissue-based; settings: filed as antagonist, tested as the 18F-labelled form
[4] = target: 5-hydroxytryptamine receptor 1A (Homo sapiens) (UniProt P08908); experiment: Binding affinity to 5-HT1A receptor (unknown origin); settings: filed as agonist
[5] = target: T1, 5-hydroxytryptamine receptor 2C (Homo sapiens, UniProt P28335); experiment: Binding affinity to human 5-HT2C assessed as inhibition constant
T1 sequence (P28335 whole entry): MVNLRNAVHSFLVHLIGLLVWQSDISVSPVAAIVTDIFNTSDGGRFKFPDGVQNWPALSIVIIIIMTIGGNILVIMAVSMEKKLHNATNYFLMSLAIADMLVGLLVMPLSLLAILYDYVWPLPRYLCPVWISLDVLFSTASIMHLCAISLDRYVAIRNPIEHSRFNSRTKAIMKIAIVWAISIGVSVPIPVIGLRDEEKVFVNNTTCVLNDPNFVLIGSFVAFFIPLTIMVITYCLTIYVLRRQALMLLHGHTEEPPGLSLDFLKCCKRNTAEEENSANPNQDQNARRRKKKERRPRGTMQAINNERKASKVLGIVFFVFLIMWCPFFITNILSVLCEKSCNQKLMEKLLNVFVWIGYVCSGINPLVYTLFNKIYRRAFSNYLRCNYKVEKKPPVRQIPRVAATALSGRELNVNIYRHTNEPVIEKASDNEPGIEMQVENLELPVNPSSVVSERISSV

[6] = target: T2, Alpha-1A adrenergic receptor (Homo sapiens, UniProt P35348); experiment: Inhibition of alpha 1A adrenergic receptor (unknown origin)
T2 sequence (P35348 whole entry): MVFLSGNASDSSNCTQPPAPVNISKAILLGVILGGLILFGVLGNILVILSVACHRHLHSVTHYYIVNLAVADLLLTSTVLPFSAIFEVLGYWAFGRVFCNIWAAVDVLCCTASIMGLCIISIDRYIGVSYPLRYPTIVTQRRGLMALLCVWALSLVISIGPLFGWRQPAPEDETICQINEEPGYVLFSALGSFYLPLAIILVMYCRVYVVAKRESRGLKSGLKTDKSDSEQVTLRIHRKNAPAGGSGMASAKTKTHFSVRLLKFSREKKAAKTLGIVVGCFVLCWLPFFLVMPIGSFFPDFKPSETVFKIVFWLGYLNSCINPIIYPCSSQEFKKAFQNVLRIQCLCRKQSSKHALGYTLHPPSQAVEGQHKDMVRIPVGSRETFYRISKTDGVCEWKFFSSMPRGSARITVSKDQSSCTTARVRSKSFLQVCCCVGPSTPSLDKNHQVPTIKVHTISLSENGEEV

[7] = target: T3, 5-hydroxytryptamine receptor 1A (Rattus norvegicus, UniProt P19327); experiment: Displacement of [3H]-8-OH-DPAT from rat hippocampal membrane 5HT1A receptor by CEREP assay; assay type: cell membranes, Hippocampus
T3 sequence (P19327 whole entry): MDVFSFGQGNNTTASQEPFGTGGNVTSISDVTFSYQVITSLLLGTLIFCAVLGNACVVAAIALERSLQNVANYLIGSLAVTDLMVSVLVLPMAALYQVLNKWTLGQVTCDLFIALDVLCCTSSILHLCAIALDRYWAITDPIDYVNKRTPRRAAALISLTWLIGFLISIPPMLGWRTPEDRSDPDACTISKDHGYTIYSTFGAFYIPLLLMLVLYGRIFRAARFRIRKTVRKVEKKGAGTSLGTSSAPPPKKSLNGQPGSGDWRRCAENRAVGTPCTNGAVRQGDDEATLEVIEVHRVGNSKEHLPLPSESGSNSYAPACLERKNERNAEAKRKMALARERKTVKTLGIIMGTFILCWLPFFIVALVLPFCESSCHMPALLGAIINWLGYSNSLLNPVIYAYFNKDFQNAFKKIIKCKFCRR

[8] = target: Alpha-1A adrenergic receptor (Homo sapiens) (UniProt P35348); experiment: Binding affinity to alpha 1A adrenergic receptor (unknown origin); settings: filed as antagonist
[9] = target: 5-hydroxytryptamine receptor 2A (Rattus norvegicus, UniProt P14842); experiment: Binding affinity to Wistar rat cortex membrane homogenate 5-HT2A receptor incubated for 90 mins by liquid scintillation counter analysis; assay type: cell membranes
[10] = target: 5-hydroxytryptamine receptor 2B (Homo sapiens, UniProt P41595); experiment: Binding affinity to 5-HT2B receptor (unknown origin) assessed as inhibition constant
[11] = target: 5-hydroxytryptamine receptor 1D (Homo sapiens, UniProt P28221); experiment: Binding affinity to 5-HT1D receptor (unknown origin) assessed as inhibition constant
[12] = target: T4, 5-hydroxytryptamine receptor 1A (Homo sapiens, UniProt P08908)
T4 sequence (P08908 whole entry): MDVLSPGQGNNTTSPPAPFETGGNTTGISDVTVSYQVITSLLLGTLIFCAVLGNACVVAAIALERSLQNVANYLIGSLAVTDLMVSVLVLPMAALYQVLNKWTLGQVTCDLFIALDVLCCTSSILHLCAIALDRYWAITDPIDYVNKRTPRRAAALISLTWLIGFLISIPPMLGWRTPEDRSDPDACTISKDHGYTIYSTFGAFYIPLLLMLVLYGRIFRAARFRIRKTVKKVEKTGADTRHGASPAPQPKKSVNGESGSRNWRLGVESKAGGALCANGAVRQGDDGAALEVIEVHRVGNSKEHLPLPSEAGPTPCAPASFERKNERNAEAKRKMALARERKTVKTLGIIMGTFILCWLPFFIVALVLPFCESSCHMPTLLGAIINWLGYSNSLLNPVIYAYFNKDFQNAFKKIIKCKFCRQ

[13] = Ratio of drug distribution in rat hippocampus to cerebellum at 30 mins postinjection; assay type: ADME, organism-based; settings: in vivo, 0.5 h
[14] = Drug uptake in plasma (unknown origin) as parent compound by measuring radioactivity at 30 mins postinjection relative to control; assay type: ADME, organism-based; settings: in vivo, 0.5 h
[15] = target: T4, 5-hydroxytryptamine receptor 1A; remark: listed apart in the source
[16] = plasma, 10 min
Description: Drug metabolism in plasma (unknown origin) assessed as parent compound remaining by measuring total radioactivity at 10 mins by HPLC analysis

[17] = Drug biodistribution in rat brain incubated for 30 mins by autoradiographic analysis; assay type: ADME, organism-based; settings: in vivo, 0.5 h
[18] = Drug metabolism in monkey plasma assessed as unchanged compound at 120 mins postinjection relative to control; assay type: ADME, organism-based, Macaca mulatta; settings: rhesus monkey, read-out: Stability
[19] = target: Serotonin 3 (5-HT3) receptor
Description: Inhibition of 5HT3 receptor (unknown origin)

[20] = Ratio of drug uptake in baboon hippocampus to cerebellum at 175 mins; assay type: ADME, tissue-based, Papio; settings: in vivo, 2.917 h
[21] = Ratio of drug uptake in baboon insular cortex to cerebellum at 175 mins; assay type: ADME, tissue-based, Papio; settings: in vivo, 2.917 h
[22] = Ratio of drug uptake in baboon anterior cingulate cortex to cerebellum at 175 mins; assay type: ADME, tissue-based, Papio; settings: in vivo, 2.917 h
[23] = Ratio of drug uptake in cynomolgus monkey cingulate gyrus to cerebellum measured at 87.5 mins postinjection; assay type: ADME, organism-based, Macaca fascicularis; settings: in vivo, 1.458 h
[24] = Ratio of drug uptake in baboon hippocampus to cerebellum; assay type: ADME, tissue-based, Papio; settings: in vivo
[25] = Ratio of drug uptake in baboon insula to cerebellum; assay type: ADME, tissue-based, Papio; settings: in vivo
[26] = Ratio of drug uptake in baboon cingulate cortex to cerebellum; assay type: ADME, tissue-based, Papio; settings: in vivo
[27] = Biodistribution in rat assessed as drug uptake measured as percentage of injected dose per gram of tissue relative to control; assay type: ADME, organism-based; settings: in vivo
[28] = Drug uptake in rat brain; assay type: ADME, tissue-based; settings: in vivo
[29] = Ratio of drug biodistribution in rat hippocampus to cerebellum at 30 mins postinjection; assay type: ADME, organism-based; settings: in vivo, 0.5 h

Sequence of 5-hydroxytryptamine receptor 1D (P28221 whole entry): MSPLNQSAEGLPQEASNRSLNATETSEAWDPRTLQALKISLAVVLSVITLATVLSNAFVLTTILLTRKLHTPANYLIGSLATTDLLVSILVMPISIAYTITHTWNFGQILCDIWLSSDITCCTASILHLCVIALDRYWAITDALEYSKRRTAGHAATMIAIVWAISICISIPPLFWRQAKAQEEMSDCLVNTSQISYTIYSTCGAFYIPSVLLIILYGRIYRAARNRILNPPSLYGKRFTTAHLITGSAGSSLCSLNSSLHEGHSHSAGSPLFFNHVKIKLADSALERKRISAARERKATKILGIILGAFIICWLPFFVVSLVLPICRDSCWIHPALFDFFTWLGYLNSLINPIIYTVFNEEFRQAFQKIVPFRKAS
Sequence of 5-hydroxytryptamine receptor 2A (P14842 whole entry): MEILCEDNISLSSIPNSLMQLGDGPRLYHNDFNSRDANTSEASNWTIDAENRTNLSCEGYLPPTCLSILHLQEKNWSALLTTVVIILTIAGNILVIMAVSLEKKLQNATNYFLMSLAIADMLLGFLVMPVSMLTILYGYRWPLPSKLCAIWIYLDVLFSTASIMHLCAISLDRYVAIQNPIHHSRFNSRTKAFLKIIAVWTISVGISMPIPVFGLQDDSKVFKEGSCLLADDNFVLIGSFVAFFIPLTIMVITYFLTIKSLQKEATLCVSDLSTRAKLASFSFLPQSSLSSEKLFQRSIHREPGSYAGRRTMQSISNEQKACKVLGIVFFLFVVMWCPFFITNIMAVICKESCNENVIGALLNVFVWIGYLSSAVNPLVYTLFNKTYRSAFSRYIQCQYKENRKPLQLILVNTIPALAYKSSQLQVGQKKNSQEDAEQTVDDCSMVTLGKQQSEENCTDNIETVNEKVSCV
Sequence of 5-hydroxytryptamine receptor 2B (P41595 whole entry): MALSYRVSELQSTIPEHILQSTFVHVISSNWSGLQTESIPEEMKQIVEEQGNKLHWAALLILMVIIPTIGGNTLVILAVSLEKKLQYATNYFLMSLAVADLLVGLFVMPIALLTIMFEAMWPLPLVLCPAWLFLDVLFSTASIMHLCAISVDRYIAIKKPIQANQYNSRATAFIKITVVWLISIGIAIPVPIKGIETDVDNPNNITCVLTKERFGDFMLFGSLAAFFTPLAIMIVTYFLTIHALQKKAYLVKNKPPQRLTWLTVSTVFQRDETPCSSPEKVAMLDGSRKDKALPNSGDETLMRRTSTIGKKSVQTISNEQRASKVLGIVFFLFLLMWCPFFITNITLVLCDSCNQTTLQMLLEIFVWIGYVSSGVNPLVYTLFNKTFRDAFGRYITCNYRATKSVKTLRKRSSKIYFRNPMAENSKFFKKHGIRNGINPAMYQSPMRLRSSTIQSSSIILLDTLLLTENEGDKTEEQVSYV

[11CH3]O[C@H]1CC[C@@H](C(=O)N(CCN2CCN(c3ccccc3O)CC2)c2ccccn2)CC1
Ki [1]: 24 nM

COc1ccccc1N1CCN(CCN(c2ccccn2)C(=O)[C@H]2CC[C@H](CF)CC2)CC1
Bmax (Macaca mulatta [2]): 36 pmol/mL | Bmax (Macaca mulatta [3]): 42 pmol/mL

COc1ccccc1N1CCN(CC(O)COc2cccc3c2SCCC3)CC1 (stereo unspecified)
K [4]: 5 nM

COc1c(OCCF)cccc1[C@H](O)C1CCN(CCc2ccc(F)cc2)CC1
Ki [5]: 71 nM

[11CH3]Oc1cccc2c1CCCC2CCCN1CCN(c2ccccc2)CC1 (stereo unspecified)
IC50 [6]: 43 nM

COc1ccccc1N1CCN(CCCCN(C)C(=O)c2cnc(SC)n2C)CC1
IC50 [7]: 0.86 nM | K [8]: 5.45 nM

[O-][S+](c1ccc(F)cc1)C1CCN(CCc2ccc(F)cc2F)CC1 (stereo unspecified)
Ki [9]: 198 nM

COc1ccccc1N1CCN(CC[C@@H](C(=O)N2CCCCCC2)c2ccccc2)CC1
Ki [10]: 7.2 nM | Ki [11]: 9.5 nM | Ki [12]: 0.6 nM

COc1ccccc1N1CCN(CCN(C(=O)c2ccc([18F])cc2)c2ccccn2)CC1
Ratio [13]: 5.6 | Drug uptake [14]: 20% | Kd [15]: 0.34 nM

O=[11C](C1CCCCC1)N(CCN1CCN(c2ccccc2O)CC1)c1ccccn1
Stability [16]: < 10%

[O-][S+](c1ccc([18F])cc1)C1CCN(CCc2ccc(F)cc2F)CC1 (stereo unspecified)
Drug uptake [17]: 30%

CN1CCN(c2cc(F)cc3c(=O)cc(C(=O)Nc4ccc(N5CCOCC5)c([18F])c4)oc23)CC1
remaining at 2 h [18]: > 40%

CN1CCN(c2ccc3ccccc3n2)CC1
IC50 [19]: 4.7 nM

Cn1c(=O)cnn(CCCCN2CCN(c3ccccc3OCC[18F])CC2)c1=O
Ratio [20]: 4 | Ratio [21]: 1.8 | Ratio [22]: 2.3

[11CH3]Oc1ccccc1N1CCN(CC[C@@H](C(=O)N2CCCCCC2)c2ccccc2)CC1
Ratio [23]: 6.4

Cn1c(=O)cnn(CCCCN2CCN(c3ccccc3O[11CH3])CC2)c1=O
Ratio [24]: > 4.7 | Ratio [25]: > 4.7 | Ratio [26]: > 4.7

COc1ccccc1N1CCN(CCCCn2ccnc2S[11CH3])CC1
Drug uptake [27]: 1.14 % ID/g

COc1ccc2cccc(N3CCN(CCNC(=O)c4ccc([18F])cc4)CC3)c2c1
SUV [28]: 2 | Ki [12]: 0.98 nM

COc1ccccc1N1CCN(CCN(C(=O)c2ccc([18F])cc2)c2ncccn2)CC1
Ratio [29]: 5.5 | Ki [12]: < 1 nM

Source: ChEMBL document CHEMBL5108009, “Positron Emission Tomography (PET) Imaging Tracers for Serotonin Receptors” (J Med Chem, 2022)
